Assay results: PMC6720511, “Synthesis and biological evaluation of novel N-(piperazin-1-yl)alkyl-1H-dibenzo[a,c]carbazole derivatives of dehydroabietic acid as potential MEK inhibitors” (Journal of Enzyme Inhibition and Medicinal Chemistry, 2019)
Where two headings read alike, the source gives them in different places.

Experiments:
[1] = test system: Hep3B; assay: MTT cytotoxic assay; type: cell-based, human; details: 48 h, mean value ± SD
Method: (§1) Three human hepatocarcinoma cell lines (SMMC-7721, HepG2 and Hep3B) and normal hepatocyte cell line (QSG-7701) were maintained in Dulbecco Modified Eagle Medium (DMEM) containing 4.0 mM L-Glutamine and 4500 mg/l Glucose supplemented with 10% (v/v) foetalbovine serum (FBS) and 100 unites/mL penicillin/streptomycin at 37 °C in humidified atmosphere of 5% CO2 and 95% air.
(§2) The in vitro cytotoxic activities of the carbazole derivatives of DHA were evaluated against three human hepatocarcinoma cell lines (SMMC-7721, HepG2 and Hep3B) and a normal human hepatocyte cell line (QSG-7701) via the MTT colorimetric method. Briefly, SMMC-7721, HepG2, Hep3B and QSG-7701 cells were harvested at log phase of growth and seeded in 96-well plates (100 µL/well at a density of 2 × 10^5 cells/mL). After 24 h incubation at 37 °C and 5% CO2 to allow cell attachment, cultures were exposed to various concentrations of the isolated compounds for 48 h. Finally, MTT solution (2.5 mg/mL in PBS) was added (40 µL/well). Plates were further incubated for 4 h at 37 °C, and the formazan crystals formed were dissolved by adding 150 µL/well of DMSO. Absorption at 570 nm was measured with an ELISA plate reader. […] Doxorubicin was co-assayed as positive control.

[2] = test system: HepG2; assay: MTT cytotoxic assay; type: cell-based, human; details: mean value ± SD
Method: as §1, §2

[3] = test system: SMMC-7721; assay: MTT cytotoxic assay; type: cell-based, human; details: mean value ± SD
Method: as §1, §2

[4] = test system: normal hepatocyte cell line (QSG-7701); assay: MTT cytotoxic assay on normal hepatocytes; type: cell-based, human; details: mean value ± SD
Method: as §1, §2

[5] = test system: three human hepatocarcinoma cell lines (SMMC-7721, HepG2 and Hep3B); assay: MTT cytotoxic assay, statements over the three cancer cell lines; type: cell-based; details: for cytotoxic activity against three cancer cell lines (in words): SMMC-7721, HepG2 and Hep3B
Method: as §1, §2

[6] = Homo sapiens, at least one of SMMC-7721, HepG2, Hep3B, read-out: IC50 against at least one hepatocarcinoma cell line
[7] = at least one of SMMC-7721, HepG2, Hep3B, read-out: IC50 against at least one hepatocarcinoma cell line

Compound | IC50 ([1]; Homo sapiens, Hep3B) | IC50 ([2]; Homo sapiens, HepG2, 48 h) | IC50 ([3]; Homo sapiens, SMMC-7721, 48 h) | IC50 [1] | IC50 ([2]; 48 h) | IC50 ([3]; 48 h) | also measured
COC(=O)C1(C)CCCC2(C)c3ccc(C(C)C)cc3-c3c(c4ccccc4n3CCN3CCN(c4ccccn4)CC3)C12 (stereo not shown) [Compound 6g, 2,3,4,4a,9,13c-Hexahydro-7-isopropyl-1,4a-dimethyl-9–(2-(4-(pyridine-2-yl)piperazin-1-yl)ethyl)-1H-dibenzo[a,c]carbazole-1-carboxylic acid methyl ester] | > 50 µM | > 50 µM | > 50 µM | – | – | – | –
2,3,4,4a,9,13c-Hexahydro-7-isopropyl-1,4a-dimethyl-9–(2-(4-(pyridine-2-yl) piperazin-1-yl)propyl)-1H-dibenzo[a,c]carbazole-1-carboxylic acid methyl ester [Compound 7g] | – | – | – | > 50 µM | > 50 µM | > 50 µM | –
2,3,4,4a,9,13c-Hexahydro-7-isopropyl-1,4a-dimethyl-9–(2-(4-formylpiperazin-1-yl)propyl)-1H-dibenzo[a,c]carbazole-1-carboxylic acid methyl ester [Compound 7e] | – | – | – | 20 ± 1.22 µM | 16.9 ± 1.58 µM | 23.3 ± 2.35 µM | IC50 ([4]; 48 h): > 50 µM; cytotoxic activity against three cancer cell lines (in words) [5]: moderate inhibitions
COC(=O)C1(C)CCCC2(C)c3ccc(C(C)C)cc3-c3c(c4ccccc4n3CCN3CCN(C)CC3)C12 (stereo not shown) [Compound 6b, 2,3,4,4a,9,13c-Hexahydro-7-isopropyl-1,4a-dimethyl-9–(2-(4-methylpiperazin-1-yl)ethyl)-1H-dibenzo[a,c]carbazole-1-carboxylic acid methyl ester] | 6.78 ± 0.42 µM | 11.7 ± 0.58 µM | 13.2 ± 0.76 µM | – | – | – | IC50 ([4]; Homo sapiens, QSG7701, 48 h): 27.5 ± 1.87 µM; IC50 [5, 6]: < 10 µM
COC(=O)C1(C)CCCC2(C)c3ccc(C(C)C)cc3-c3c(c4ccccc4n3CCN3CCN(Cc4ccccc4)CC3)C12 (stereo not shown) [Compound 6h, 2,3,4,4a,9,13c-Hexahydro-7-isopropyl-1,4a-dimethyl-9–(2-(4-benzylpiperazin-1-yl)ethyl)-1H-dibenzo[a,c]carbazole-1-carboxylic acid methyl ester] | > 50 µM | > 50 µM | > 50 µM | – | – | – | –
2,3,4,4a,9,13c-Hexahydro-7-isopropyl-1,4a-dimethyl-9–(2-(4-formylpiperazin-1-yl)butyl)-1H-dibenzo[a,c]carbazole-1-carboxylic acid methyl ester [Compound 8e] | – | – | – | 38 ± 1.75 µM | 41.2 ± 3.56 µM | 32.1 ± 2.78 µM | IC50 ([4]; 48 h): > 50 µM; cytotoxic activity against three cancer cell lines (in words) [5]: moderate inhibitions
CCN1CCN(CCn2c3c(c4ccccc42)C2C(C)(C(=O)OC)CCCC2(C)c2ccc(C(C)C)cc2-3)CC1 (stereo not shown) [Compound 6c, 2,3,4,4a,9,13c-Hexahydro-7-isopropyl-1,4a-dimethyl-9–(2-(4-ethylpiperazin-1-yl)ethyl)-1H-dibenzo[a,c]carbazole-1-carboxylic acid methyl ester] | 11 ± 0.65 µM | 17.4 ± 1.73 µM | 14 ± 2.1 µM | – | – | – | IC50 ([4]; Homo sapiens, QSG7701, 48 h): 41.1 ± 3.69 µM; cytotoxic activity against three cancer cell lines (in words) [5]: moderate activity
2,3,4,4a,9,13c-Hexahydro-7-isopropyl-1,4a-dimethyl-9–(2-(4-benzylpiperazin-1-yl)propyl)-1H-dibenzo[a,c]carbazole-1-carboxylic acid methyl ester [Compound 7h] | – | – | – | > 50 µM | > 50 µM | > 50 µM | –
COC(=O)C1(C)CCCC2(C)c3ccc(C(C)C)cc3-c3c(c4ccccc4n3CCCN3CCN(C)CC3)C12 (stereo not shown) [Compound 7b, 2,3,4,4a,9,13c-Hexahydro-7-isopropyl-1,4a-dimethyl-9–(3-(4-methylpiperazin-1-yl)propyl)-1H-dibenzo[a,c]carbazole-1-carboxylic acid methyl ester] | 5.98 ± 0.39 µM | 29 ± 1.29 µM | 6.8 ± 0.72 µM | – | – | – | IC50 ([4]; Homo sapiens, QSG7701, 48 h): > 50 µM; IC50 [5, 6]: < 10 µM
2,3,4,4a,9,13c-Hexahydro-7-isopropyl-1,4a-dimethyl-9–(2-(4-ethylpiperazin -1-yl)butyl)-1H-dibenzo[a,c]carbazole-1-carboxylic acid methyl ester [Compound 8c] | – | – | – | > 50 µM | > 50 µM | > 50 µM | cytotoxic activity against three cancer cell lines (in words) [5]: weak or no inhibitions
COc1cccc2c1C(=O)c1c(O)c3c(c(O)c1C2=O)C[C@@](O)(C(=O)CO)C[C@@H]3O[C@H]1C[C@H](N)[C@H](O)[C@H](C)O1 [Doxorubicin, reference compound] | 1.02 ± 0.09 µM | 2.38 ± 0.29 µM | 1.13 ± 0.11 µM | – | – | – | IC50 ([4]; Homo sapiens, QSG7701, 48 h): 13.8 ± 0.53 µM
COC(=O)C1(C)CCCC2(C)c3ccc(C(C)C)cc3-c3c(c4ccccc4n3CCN3CCN(c4ccccc4)CC3)C12 (stereo not shown) [Compound 6f, 2,3,4,4a,9,13c-Hexahydro-7-isopropyl-1,4a-dimethyl-9–(2-(4-phenylpiperazin-1-yl)ethyl)-1H-dibenzo[a,c]carbazole-1-carboxylic acid methyl ester] | > 50 µM | > 50 µM | > 50 µM | – | – | – | –
2,3,4,4a,9,13c-Hexahydro-7-isopropyl-1,4a-dimethyl-9–(2-(4-phenyl piperazin-1-yl)butyl)-1H-dibenzo[a,c]carbazole-1-carboxylic acid methyl ester [Compound 8f] | – | – | – | > 50 µM | > 50 µM | > 50 µM | –
COC(=O)C1(C)CCCC2(C)c3ccc(C(C)C)cc3-c3c(c4ccccc4n3CCN3CCN(C=O)CC3)C12 (stereo not shown) [Compound 6e, 2,3,4,4a,9,13c-Hexahydro-7-isopropyl-1,4a-dimethyl-9–(2-(4-formylpiperazin-1-yl)ethyl)-1H-dibenzo[a,c]carbazole-1-carboxylic acid methyl ester] | 11.4 ± 0.53 µM | 15.7 ± 1.61 µM | 17.3 ± 1.78 µM | – | – | – | IC50 ([4]; Homo sapiens, QSG7701, 48 h): > 50 µM; cytotoxic activity against three cancer cell lines (in words) [5]: moderate inhibitions
2,3,4,4a,9,13c-Hexahydro-7-isopropyl-1,4a-dimethyl-9–(2-(piperazin-1-yl) butyl)-1H-dibenzo[a,c]carbazole-1-carboxylic acid methyl ester [Compound 8a] | – | – | – | 2.89 ± 0.27 µM | 4.8 ± 0.32 µM | 6.1 ± 0.47 µM | IC50 ([4]; 48 h): 23.4 ± 2.97 µM; IC50 [5, 7]: < 10 µM; IC50 ([5]; over SMMC-7721, HepG2 and Hep3B, read-out: IC50 against the three cancer cell lines): 2.89 to 6.1 µM
2,3,4,4a,9,13c-Hexahydro-7-isopropyl-1,4a-dimethyl-9–(2-(4-phenyl piperazin-1-yl)propyl)-1H-dibenzo[a,c]carbazole-1-carboxylic acid methyl ester [Compound 7f] | – | – | – | > 50 µM | > 50 µM | > 50 µM | –
2,3,4,4a,9,13c-Hexahydro-7-isopropyl-1,4a-dimethyl-9–(2-(1,4-diazepan-1-yl) propyl)-1H-dibenzo[a,c]carbazole-1-carboxylic acid methyl ester [Compound 7d] | – | – | – | 12.8 ± 0.67 µM | 8.68 ± 1.13 µM | 10.3 ± 1.02 µM | IC50 ([4]; 48 h): 32.8 ± 3.22 µM; IC50 [5, 7]: < 10 µM
2,3,4,4a,9,13c-Hexahydro-7-isopropyl-1,4a-dimethyl-9–(2-(4-ethylpiperazin -1-yl)propyl)-1H-dibenzo[a,c]carbazole-1-carboxylic acid methyl ester [Compound 7c] | – | – | – | 40.7 ± 2.62 µM | > 50 µM | > 50 µM | cytotoxic activity against three cancer cell lines (in words) [5]: weak or no inhibitions
2,3,4,4a,9,13c-Hexahydro-7-isopropyl-1,4a-dimethyl-9–(2-(1,4-diazepan-1-yl) butyl)-1H-dibenzo[a,c]carbazole-1-carboxylic acid methyl ester [Compound 8d] | – | – | – | 14.4 ± 0.77 µM | 11.5 ± 1.23 µM | 12.8 ± 0.84 µM | IC50 ([4]; 48 h): 43.6 ± 4.03 µM
2,3,4,4a,9,13c-Hexahydro-7-isopropyl-1,4a-dimethyl-9–(3-(4-methyl piperazin-1-yl)butyl)-1H-dibenzo[a,c]carbazole-1-carboxylic acid methyl ester [Compound 8b] | – | – | – | 18.3 ± 1.02 µM | 19.6 ± 2.91 µM | 34.9 ± 3.35 µM | IC50 ([4]; 48 h): > 50 µM
2,3,4,4a,9,13c-Hexahydro-7-isopropyl-1,4a-dimethyl-9–(2-(4-benzylpiperazin -1-yl)butyl)-1H-dibenzo[a,c]carbazole-1-carboxylic acid methyl ester [Compound 8h] | – | – | – | > 50 µM | > 50 µM | > 50 µM | –
2,3,4,4a,9,13c-Hexahydro-7-isopropyl-1,4a-dimethyl-9–(2-(4-(pyridine-2-yl) piperazin-1-yl)butyl)-1H-dibenzo[a,c]carbazole-1-carboxylic acid methyl ester [Compound 8g] | – | – | – | > 50 µM | > 50 µM | > 50 µM | –
